Data reported in ChEMBL document CHEMBL5465560, “Selectivity Literature for EUbOPEN Chemogenomic Library” (2024).

Legend:
[1] = target: T1, Serine/threonine-protein kinase Nek11 (Homo sapiens) (UniProt Q8NG66); experiment: Selectivity interaction (KinomeScan (DiscoverX)) EUB0000229b NEK11; details: at 10 µM
T1 sequence (whole entry): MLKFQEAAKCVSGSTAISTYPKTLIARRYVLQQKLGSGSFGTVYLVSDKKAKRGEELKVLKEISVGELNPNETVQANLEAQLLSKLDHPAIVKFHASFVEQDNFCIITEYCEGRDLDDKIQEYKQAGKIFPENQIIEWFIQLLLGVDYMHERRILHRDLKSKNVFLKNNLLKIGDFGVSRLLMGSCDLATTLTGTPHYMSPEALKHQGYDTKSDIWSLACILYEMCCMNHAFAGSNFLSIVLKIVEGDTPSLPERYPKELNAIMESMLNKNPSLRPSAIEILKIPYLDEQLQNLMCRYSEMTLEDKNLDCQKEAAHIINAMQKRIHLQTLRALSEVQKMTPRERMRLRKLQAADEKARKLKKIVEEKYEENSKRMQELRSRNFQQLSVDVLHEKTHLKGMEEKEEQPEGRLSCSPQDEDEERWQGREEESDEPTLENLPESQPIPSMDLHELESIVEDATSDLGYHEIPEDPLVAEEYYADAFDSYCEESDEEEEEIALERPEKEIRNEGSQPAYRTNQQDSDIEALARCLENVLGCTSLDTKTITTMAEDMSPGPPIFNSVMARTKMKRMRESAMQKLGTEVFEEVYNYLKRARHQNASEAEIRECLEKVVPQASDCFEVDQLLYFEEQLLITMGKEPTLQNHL

[2] = target: cAMP-dependent protein kinase catalytic subunit beta (Homo sapiens) (UniProt P22694); experiment: Selectivity interaction (KinomeScan (DiscoverX)) EUB0000229b PRKACB; details: at 10 µM
[3] = target: Mitogen-activated protein kinase 9 (Homo sapiens, UniProt P45984); details: at 10 µM
[4] = target: MAP kinase-activated protein kinase 2 (Homo sapiens, UniProt P49137); details: at 10 µM
[5] = target: T2, Muscarinic acetylcholine receptor M1 (Homo sapiens) (UniProt P11229); experiment: Selectivity interaction (GPCR panel (PDSP screen)) EUB0001079a CHRM1; details: at 10 µM
T2 sequence (whole entry): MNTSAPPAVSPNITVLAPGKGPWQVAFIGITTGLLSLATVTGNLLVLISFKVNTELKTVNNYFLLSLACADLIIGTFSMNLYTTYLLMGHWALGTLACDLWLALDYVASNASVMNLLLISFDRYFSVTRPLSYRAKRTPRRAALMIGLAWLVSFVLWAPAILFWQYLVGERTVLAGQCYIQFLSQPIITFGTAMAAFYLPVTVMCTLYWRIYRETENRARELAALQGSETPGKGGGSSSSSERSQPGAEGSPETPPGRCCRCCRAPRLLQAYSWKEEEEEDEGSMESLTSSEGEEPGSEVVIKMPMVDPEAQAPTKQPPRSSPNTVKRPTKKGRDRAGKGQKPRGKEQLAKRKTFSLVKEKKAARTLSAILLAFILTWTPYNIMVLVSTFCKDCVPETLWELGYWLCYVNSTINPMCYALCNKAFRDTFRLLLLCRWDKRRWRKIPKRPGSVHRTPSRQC

[6] = target: Serine/threonine-protein kinase PAK 6 (Homo sapiens) (UniProt Q9NQU5); experiment: Selectivity interaction (KinomeScan (DiscoverX)) EUB0000666a PAK6; details: at 10 µM
[7] = target: Dual specificity protein kinase CLK3 (Homo sapiens, UniProt P49761); experiment: Selectivity interaction (KinomeScan (DiscoverX)) EUB0001049a CLK3; details: at 1 µM
[8] = target: T3, Aurora kinase A (Homo sapiens) (UniProt O14965); experiment: Selectivity interaction (KinomeScan (DiscoverX)) EUB0001619a STK6; details: at 1 µM
T3 sequence (whole entry): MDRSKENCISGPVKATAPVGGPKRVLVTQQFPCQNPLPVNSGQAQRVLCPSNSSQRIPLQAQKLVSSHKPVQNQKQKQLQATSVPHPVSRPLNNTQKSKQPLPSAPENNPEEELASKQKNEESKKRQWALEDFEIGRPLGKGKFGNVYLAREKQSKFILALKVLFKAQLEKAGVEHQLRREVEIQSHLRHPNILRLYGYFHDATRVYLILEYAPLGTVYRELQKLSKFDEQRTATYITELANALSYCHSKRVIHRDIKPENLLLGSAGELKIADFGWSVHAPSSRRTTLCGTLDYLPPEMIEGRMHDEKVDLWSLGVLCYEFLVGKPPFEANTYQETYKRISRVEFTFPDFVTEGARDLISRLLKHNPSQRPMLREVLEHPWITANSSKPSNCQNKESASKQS

[9] = target: T4, cGMP-dependent protein kinase 1 (Homo sapiens) (UniProt Q13976); experiment: Selectivity interaction (KinaseProfiler screening (Millipore)) EUB0000601a PRKG1; details: at 3 µM
T4 sequence (whole entry): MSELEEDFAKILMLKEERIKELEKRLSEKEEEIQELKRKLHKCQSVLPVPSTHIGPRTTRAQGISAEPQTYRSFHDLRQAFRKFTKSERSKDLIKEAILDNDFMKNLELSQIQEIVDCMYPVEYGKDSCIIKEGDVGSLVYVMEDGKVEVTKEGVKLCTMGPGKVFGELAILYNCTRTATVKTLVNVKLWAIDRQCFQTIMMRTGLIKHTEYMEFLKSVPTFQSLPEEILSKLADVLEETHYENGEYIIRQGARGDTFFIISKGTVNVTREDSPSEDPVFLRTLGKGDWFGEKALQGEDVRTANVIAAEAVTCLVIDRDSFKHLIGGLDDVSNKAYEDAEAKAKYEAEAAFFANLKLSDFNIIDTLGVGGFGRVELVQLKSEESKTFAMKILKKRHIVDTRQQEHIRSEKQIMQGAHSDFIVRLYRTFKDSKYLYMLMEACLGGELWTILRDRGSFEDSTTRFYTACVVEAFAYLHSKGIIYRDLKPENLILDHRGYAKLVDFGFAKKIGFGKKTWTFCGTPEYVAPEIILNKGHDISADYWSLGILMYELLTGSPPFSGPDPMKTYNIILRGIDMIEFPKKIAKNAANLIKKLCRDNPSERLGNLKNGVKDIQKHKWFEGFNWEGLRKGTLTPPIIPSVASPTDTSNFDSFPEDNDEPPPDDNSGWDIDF

[10] = target: Tyrosine-protein kinase SYK (Homo sapiens, UniProt P43405); experiment: Selectivity interaction (KinomeScan (DiscoverX)) EUB0000655a SYK; details: at 10 µM
[11] = tested on: Mast/stem cell growth factor receptor Kit (Homo sapiens), P10721 [V559D,V654A]; details: at 10 µM
Mast/stem cell growth factor receptor Kit (Homo sapiens), P10721 [V559D,V654A], sequence (P10721 whole entry V559D/V654A): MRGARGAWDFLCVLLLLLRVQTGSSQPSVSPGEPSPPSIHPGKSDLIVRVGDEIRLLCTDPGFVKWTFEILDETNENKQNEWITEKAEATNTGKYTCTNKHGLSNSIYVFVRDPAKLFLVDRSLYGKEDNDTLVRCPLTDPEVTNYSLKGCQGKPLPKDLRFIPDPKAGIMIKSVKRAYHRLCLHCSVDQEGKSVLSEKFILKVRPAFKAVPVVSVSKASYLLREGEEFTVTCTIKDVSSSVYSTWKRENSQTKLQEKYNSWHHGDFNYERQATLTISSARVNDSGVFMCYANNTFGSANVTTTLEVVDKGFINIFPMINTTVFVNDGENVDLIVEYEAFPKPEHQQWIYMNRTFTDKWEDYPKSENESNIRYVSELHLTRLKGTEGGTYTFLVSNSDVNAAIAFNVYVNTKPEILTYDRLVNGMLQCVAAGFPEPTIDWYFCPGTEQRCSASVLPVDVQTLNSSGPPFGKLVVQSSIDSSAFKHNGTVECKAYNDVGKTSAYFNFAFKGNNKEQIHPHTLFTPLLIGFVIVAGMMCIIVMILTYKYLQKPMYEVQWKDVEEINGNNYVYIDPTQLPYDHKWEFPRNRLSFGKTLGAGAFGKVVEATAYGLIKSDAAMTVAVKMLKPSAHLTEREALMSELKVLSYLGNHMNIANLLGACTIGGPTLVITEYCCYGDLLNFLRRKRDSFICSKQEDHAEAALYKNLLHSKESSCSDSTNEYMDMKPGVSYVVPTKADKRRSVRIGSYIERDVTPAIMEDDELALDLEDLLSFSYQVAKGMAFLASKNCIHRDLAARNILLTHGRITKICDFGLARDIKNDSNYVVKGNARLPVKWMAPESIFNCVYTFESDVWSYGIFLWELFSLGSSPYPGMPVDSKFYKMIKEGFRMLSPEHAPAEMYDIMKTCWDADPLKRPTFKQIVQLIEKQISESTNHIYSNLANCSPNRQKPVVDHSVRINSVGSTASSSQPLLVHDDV

Mitogen-activated protein kinase 9, sequence (P45984 whole entry, looked up): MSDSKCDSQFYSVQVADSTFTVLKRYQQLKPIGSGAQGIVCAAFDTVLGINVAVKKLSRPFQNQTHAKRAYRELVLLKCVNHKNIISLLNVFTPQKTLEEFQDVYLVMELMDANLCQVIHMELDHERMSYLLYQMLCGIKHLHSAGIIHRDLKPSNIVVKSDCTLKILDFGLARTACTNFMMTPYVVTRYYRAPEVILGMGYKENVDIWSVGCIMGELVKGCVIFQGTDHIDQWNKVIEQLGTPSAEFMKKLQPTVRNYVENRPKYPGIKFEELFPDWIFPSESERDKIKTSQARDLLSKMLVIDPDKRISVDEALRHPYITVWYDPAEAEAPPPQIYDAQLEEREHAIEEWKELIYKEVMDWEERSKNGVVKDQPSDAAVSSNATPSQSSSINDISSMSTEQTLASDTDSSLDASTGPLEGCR
Dual specificity protein kinase CLK3, sequence (P49761 whole entry, looked up): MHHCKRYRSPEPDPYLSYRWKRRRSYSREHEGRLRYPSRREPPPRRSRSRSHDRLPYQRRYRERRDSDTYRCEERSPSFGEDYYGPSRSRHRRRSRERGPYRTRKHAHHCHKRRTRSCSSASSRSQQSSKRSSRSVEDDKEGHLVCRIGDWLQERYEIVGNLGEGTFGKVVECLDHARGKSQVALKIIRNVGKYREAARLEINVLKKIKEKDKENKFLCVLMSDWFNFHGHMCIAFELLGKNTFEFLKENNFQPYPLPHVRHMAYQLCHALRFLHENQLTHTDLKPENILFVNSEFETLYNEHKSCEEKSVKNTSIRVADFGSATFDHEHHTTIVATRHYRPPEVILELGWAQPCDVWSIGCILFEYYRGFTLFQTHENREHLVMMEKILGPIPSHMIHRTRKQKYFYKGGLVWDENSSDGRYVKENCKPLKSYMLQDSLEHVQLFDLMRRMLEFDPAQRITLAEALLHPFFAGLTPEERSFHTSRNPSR
MAP kinase-activated protein kinase 2, sequence (P49137 whole entry, looked up): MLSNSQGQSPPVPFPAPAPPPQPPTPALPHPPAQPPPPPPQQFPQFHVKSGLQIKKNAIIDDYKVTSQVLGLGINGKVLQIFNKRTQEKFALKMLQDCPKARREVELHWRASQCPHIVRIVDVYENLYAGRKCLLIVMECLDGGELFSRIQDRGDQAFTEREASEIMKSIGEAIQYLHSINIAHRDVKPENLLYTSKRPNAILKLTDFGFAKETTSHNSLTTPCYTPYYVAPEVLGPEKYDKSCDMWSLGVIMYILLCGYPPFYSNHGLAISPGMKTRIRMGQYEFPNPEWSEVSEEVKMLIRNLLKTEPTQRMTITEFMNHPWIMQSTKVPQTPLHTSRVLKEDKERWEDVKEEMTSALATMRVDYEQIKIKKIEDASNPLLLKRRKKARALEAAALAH
Serine/threonine-protein kinase PAK 6 (Homo sapiens), sequence (Q9NQU5 whole entry, looked up): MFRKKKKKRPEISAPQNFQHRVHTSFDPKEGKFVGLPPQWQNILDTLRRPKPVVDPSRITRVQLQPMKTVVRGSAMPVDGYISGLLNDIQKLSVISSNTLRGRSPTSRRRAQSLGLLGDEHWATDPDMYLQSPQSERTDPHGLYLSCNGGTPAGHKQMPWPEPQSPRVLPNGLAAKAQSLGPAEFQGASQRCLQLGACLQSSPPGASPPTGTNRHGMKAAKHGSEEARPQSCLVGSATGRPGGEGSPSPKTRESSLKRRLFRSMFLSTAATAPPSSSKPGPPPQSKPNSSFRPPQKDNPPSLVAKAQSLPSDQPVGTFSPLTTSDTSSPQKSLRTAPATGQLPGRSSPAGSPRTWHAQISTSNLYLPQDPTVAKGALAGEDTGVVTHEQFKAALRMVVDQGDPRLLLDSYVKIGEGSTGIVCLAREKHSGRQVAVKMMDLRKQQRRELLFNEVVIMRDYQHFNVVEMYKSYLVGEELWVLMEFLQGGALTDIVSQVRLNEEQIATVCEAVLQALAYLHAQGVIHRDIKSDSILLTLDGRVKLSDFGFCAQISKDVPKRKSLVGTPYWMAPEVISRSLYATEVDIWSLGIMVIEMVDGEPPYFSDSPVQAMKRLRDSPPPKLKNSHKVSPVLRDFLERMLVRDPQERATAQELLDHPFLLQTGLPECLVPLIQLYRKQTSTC

COc1cc(N(C)c2ccnc3ccc(C(F)(F)F)cc23)cc(OC)c1OC
% binding [1]: 91% | % binding [2]: 75%

COCC(=O)NC/C=C/c1ccc2ncnc(Nc3ccc(Oc4ccc(C)nc4)c(C)c3)c2c1 [CP-724714]
% of control [3]: 53% | % of control [4]: 100%

Nc1cnc(N2CCc3cc(S(=O)(=O)Nc4c(F)cc(Cl)cc4F)cc(N4CCCC4=O)c32)nc1 [TP-020n]
% of inhibition [5]: -9.48%

O=C(NOC[C@H](O)CO)c1ccc(F)c(F)c1Nc1ccc(I)cc1F
% of control [6]: 100%

COc1cc(Nc2nc(C)cc(-c3cnn4nc(OC)ccc34)n2)cc(C(F)(F)F)c1
% of control [7]: 80%

N#Cc1cccc(-c2c[nH]c3ncnc(N4CCOCC4)c23)c1
% of control [8]: 57%

CCc1cc(Nc2nccc(-c3c(-c4ccc(OC)c(C(=O)Nc5c(F)cccc5F)c4)nc4ccccn34)n2)c(OC)cc1N1CCC(N2CCN(S(C)(=O)=O)CC2)CC1
% of inhibition [9]: 41%

CN(C)CCOc1ccc(-c2nc(-c3ccncc3)c(-c3ccc4c(c3)CC/C4=N\O)[nH]2)cc1
% of control [10]: 100%

CCN(CC)CCCCNc1ncc2cc(-c3cc(OC)cc(OC)c3)c(NC(=O)NC(C)(C)C)nc2n1
% of control [11]: 100%
